Source: ChEMBL document CHEMBL3727348, “3-(aryl or heteroaryl) methyleneindolin-2-one derivatives as inhibitors of cancer stem cell pathway kinases for the treatment of cancer” (2014)
pIC50: −log10 of the molar value.

Tests used:
Format in all cases: functional, cell-based
ACHN [1] = assay: Cytotoxic activity against human ACHN bulk cells incubated for 72 hrs by Cell-titer-Glo luminescence assay
FaDu [2] = assay: Cytotoxic activity against human FADU cancer stem cells incubated for 72 hrs by Cell-titer-Glo luminescence assay
A549 [3] = assay: Cytotoxic activity against human A549 cancer stem cells incubated for 72 hrs by Cell-titer-Glo luminescence assay; details: A549, 72 h
A549 [4] = assay: Cytotoxic activity against human A549 bulk cells incubated for 72 hrs by Cell-titer-Glo luminescence assay; details: A549, 72 h
FaDu [5] = assay: Cytotoxic activity against human FADU bulk cells incubated for 72 hrs by Cell-titer-Glo luminescence assay
ACHN [6] = assay: Cytotoxic activity against human ACHN cancer stem cells incubated for 72 hrs by Cell-titer-Glo luminescence assay

SMILES | pIC50 (ACHN [1]) | pIC50 (FaDu [2]) | pIC50 (A549 [3]) | pIC50 (A549 [4]) | pIC50 (FaDu [5]) | pIC50 (ACHN [6])
O=C1Nc2ccc(-c3csc(-c4ccccc4)n3)cc2/C1=C/c1cnc[nH]1 | 5.06 | 5.20 | 6.05 | 4.95 | 5.21 | –
Cc1cc(C)c(/C=C2\C(=O)Nc3ccc(-c4cnsc4)cc32)[nH]1 | 4.37 | 4.36 | – | – | 4.57 | 4.77
O=C1Nc2ccc(-c3csc(-c4ccncc4)n3)cc2/C1=C/c1ncc[nH]1 | 6.54 | – | 5.59 | 4.83 | 5.47 | 5.04
Cc1cc(C)c(/C=C2\C(=O)Nc3ccc(-c4ccncc4)cc32)[nH]1 | – | – | – | – | – | 5.16
CCN(CC)CCNC(=O)c1c(C)[nH]c(/C=C2\C(=O)Nc3cc(-c4nccc5ccccc45)ccc32)c1C | 5.19 | 4.61 | – | 5.15 | 5.04 | 5.72
CCN(CC)CCNC(=O)c1c(C)[nH]c(/C=C2\C(=O)Nc3ccc(-c4csc(-c5ccc(C)cc5)n4)cc32)c1C | – | 5.47 | 4.98 | – | – | 6.16
CCN(CC)CCNC(=O)c1c(C)[nH]c(/C=C2\C(=O)Nc3ccc(-c4csc(C5CCNC5)n4)cc32)c1C (centres undefined) | 5.17 | – | 4.49 | 6.14 | 5.62 | –
CCOC(=O)c1cc(C)c(/C=C2\C(=O)Nc3ccc(-c4csc(-c5ccccc5)n4)cc32)[nH]1 | 6.41 | – | 4.88 | 4.40 | 4.87 | –
Cc1ccc(-c2ccc3c(c2)NC(=O)/C3=C\c2[nH]c(C)cc2C)cn1 | 4.66 | 5.44 | 4.63 | – | – | 5.34
Cc1cc(C)c(/C=C2\C(=O)Nc3ccc(-c4cnc(-c5ccccc5)cn4)cc32)[nH]1 | – | – | – | – | – | 5.17
Cc1cc(C)c(/C=C2\C(=O)Nc3ccc(-c4csc(-n5cccn5)n4)cc32)[nH]1 | 5.05 | 4.57 | 4.79 | 5.01 | 4.68 | –
CCN(CC)CCNC(=O)c1c(C)[nH]c(/C=C2\C(=O)Nc3ccc(-c4csc(-c5cccc(CCC(=O)O)c5)n4)cc32)c1C | 5.90 | 5.31 | 5.38 | – | 5.75 | –
CCN(CC)CCNC(=O)c1c(C)[nH]c(/C=C2\C(=O)Nc3ccc(-c4cnc(-c5ccccc5)cn4)cc32)c1C | 4.59 | 4.41 | 4.36 | 4.77 | 4.76 | –
Cc1ccc(-c2ccc3c(c2)/C(=C/c2[nH]c(C)cc2C)C(=O)N3)nc1 | – | – | – | – | 4.43 | 7.30
CCN(CC)CCNC(=O)c1c(C)[nH]c(/C=C2\C(=O)Nc3ccc(-c4ccc5ccccc5n4)cc32)c1C | 5.56 | – | 5.82 | 5.74 | 6.04 | 6.48
CCN(CC)CCNC(=O)c1c(C)[nH]c(/C=C2\C(=O)Nc3cc(-c4ccc(-c5ccccc5)nc4)ccc32)c1C | – | 5.95 | 5.44 | 4.83 | – | 6.68
CCN(CC)CCNC(=O)c1c(C)[nH]c(/C=C2\C(=O)Nc3ccc(-c4csc(C(=O)O)c4)cc32)c1C | 5.11 | 4.85 | 4.85 | 5.11 | – | 5.89
Cc1cc(C)c(/C=C2\C(=O)Nc3cc(-c4cnc5ccccc5n4)ccc32)[nH]1 | – | 5.06 | 5.23 | 4.74 | – | 5.60
Cc1[nH]c(/C=C2\C(=O)Nc3ccc(-c4cnn(-c5ccccn5)c4)cc32)c(C)c1C(=O)N1CCN(C)CC1 | – | 6.62 | 4.93 | 4.72 | 5.44 | –
CCN(CC)CCN1CCCc2[nH]c(/C=C3\C(=O)Nc4ccc(-c5csc(C6CCNCC6)n5)cc43)c(C)c2C1=O | – | – | – | 5.15 | 5.06 | 4.93
Cc1cc(C)c(/C=C2\C(=O)Nc3ccc(-c4ncccc4C)cc32)[nH]1 | 5.10 | 4.39 | – | 4.65 | – | 8.00
CSc1cnc(-c2ccc3c(c2)/C(=C/c2[nH]c(C)cc2C)C(=O)N3)cn1 | 6.80 | – | – | 4.45 | – | 4.74
Cc1cc(C)c(/C=C2\C(=O)Nc3ccc(-c4cnc5ccccn45)cc32)[nH]1 | 4.60 | 4.77 | 4.69 | 4.78 | 4.94 | –
CCN(CC)CCNC(=O)c1c(C)[nH]c(/C=C2\C(=O)Nc3cc(-c4ccc5ccccc5n4)ccc32)c1C | – | 5.29 | 5.18 | 4.79 | 4.78 | 5.87
Cc1[nH]c(/C=C2\C(=O)Nc3ccc(-c4csc(-c5ccccc5)n4)cc32)c(C)c1S(=O)(=O)N1CCCC1 | 4.90 | 5.18 | – | 5.54 | 5.26 | 5.30
